Test results published in patent US20220226258A1, “COMPOSITIONS AND METHODS USING THYMOL AND/OR CARVACROL FOR INDUCTION OF AUTOPHAGY” (SOCIETE DES PRODUITS NESTLE S.A., priority 2019, published 2022).

Tests used:
human Jurkat cells = experiment: Autophagic flux (LC3-II, flow cytometry) in Jurkat cells; type: cell-based; settings: thymol 1.95 to 250 μM, LC3-II median fluorescence intensity, FIG. 1
Description: The human lymphocytic T cell line Jurkat (clone E6.1, ATCC TIB-152) has been used to measure autophagic flux in vitro. Cells were grown in RPMI medium with standard conditions (5% CO2, 37° C.) in a humidified atmosphere. For the experiment, cells were washed, counted and incubated at 1*105/well in duplicate in a 96-flat bottom well plate. Experimental conditions included negative controls (0.5% DMSO), rapamycin treatment as positive control (1 uM) and Earle's Balanced Salt Solution (EBSS) as a starvation medium. Cells received Thymol (in RPMI) at different concentrations ranging from 1.95 μM to 250 μM. In parallel, the same experimental conditions were prepared for the incubation with solution A, from the Flow Cellect Autophagy Kit from Merck, now Guava Autophagy LC3 antibody-based kit. The treatment with compound A blocks the lysosomal degradation of LC3 vesicles and is used to measure autophagic flux. Cells were incubated with thymol at 37° for 1.30 h. Solution A was added for additional 30 minutes. Cells were then transferred in a 96 V bottom plate for the LC3 antibody detection using the Guava Autophagy LC3 antibody-based kit, according the manufacturer's instructions. […] Offline analysis was performed with FCS Express Software and results were expressed as the median fluorescence intensity in the FITC channel (related to the amount of LC3-II present in the cells.)

zebrafish larvae = experiment: Autophagy reporter zebrafish line (LC3-ZsGreen punctae in skeletal muscle); type: in vivo; settings: 16 hours of treatment, LC3 punctae with and without ammonium chloride, FIG. 2
Description: After 16 hours of treatment larvae were anesthetized with 0.016% tricaine and imaged with ImageXpress confocal system at 20× magnification (Molecular Devices). Z stack images were captured for each larva and maximal projection images were produced. Ammonium chloride was added for additional 4 hours to block lysosomal degradation. Images were acquired again as before. In order to quantify autophagic flux, number of LC3 punctae have been calculated in presence and in absence of ammonium chloride with MetaXpress software (Molecular Devices) and normalized by zebrafish area.

[1] = system: liver steatosis in obese mice; experiment: Chronic treatment on a model of obesity (high fat diet), liver Oil Red O staining; type: in vivo; settings: thymol 20 mg/kg/day for 8 weeks, FIG. 4
Description: Mice were fed with high fat diet (Research Diets D12492: 60% fat, 20% protein, 20% carbohydrates) for 8 weeks. Mice were sacrificed by isofluorane inhalation followed by exsanguination. Livers were collected, embedded in OCT and frozen in isopentane. In order to visualize lipid droplets, liver sections of 10 μm were cut and stained by Oil Red O. Lipids size was calculated using imageJ software

Cc1ccc(C(C)C)c(O)c1 [thymol]
concentration from which thymol induced autophagy in a dose dependent manner (human Jurkat cells): ≥ 125 µM | concentration from which thymol induced autophagy in a dose dependent manner (zebrafish larvae): ≥ 50 µM | liver steatosis [1]: reduction of liver steatosis
